Measured values reported in article PMC12420824, “Discovery of a selective alpha-kinase 1 inhibitor for the rare genetic disease ROSAH syndrome” (Nature Communications, 2025).
Several values for one entry are separate records, joined by “and”; a condition that tells them apart may be missing. Equal entries are not always repeated. Where two headings read alike, the source gives them in different places.

Key:
ACK1 = ACK1 (Homo sapiens, UniProt Q07912); test: HotSpot kinase assay; settings: read-out: % Enzyme Activity (relative to DMSO control), 10 uM
MSSK1/STK23 = MSSK1/STK23 (Homo sapiens, UniProt Q9UPE1); test: HotSpot kinase assay; settings: read-out: % Enzyme Activity (relative to DMSO control), 10 uM
RSK1 = RSK1 (Homo sapiens, UniProt Q15418); test: HotSpot kinase assay; settings: read-out: % Enzyme Activity (relative to DMSO control), 10 uM
PKCepsilon = PKCepsilon (Homo sapiens, UniProt Q02156); test: HotSpot kinase assay; settings: read-out: % Enzyme Activity (relative to DMSO control), 10 uM
From the text: (§1) Additionally, a 10-dose dilution series of staurosporine and other enzyme-appropriate compounds were included as positive control inhibitors.

ALK1/ACVRL1 = ALK1/ACVRL1 (Homo sapiens, UniProt P37023); test: HotSpot kinase assay; settings: read-out: % Enzyme Activity (relative to DMSO control), 10 uM
From the text: as §1

NEK6 = NEK6 (Homo sapiens, UniProt Q9HC98); test: HotSpot kinase assay; settings: read-out: % Enzyme Activity (relative to DMSO control), 10 uM
From the text: as §1

STK22D/TSSK1 = STK22D/TSSK1 (Homo sapiens, UniProt Q9BXA7); test: biochemical; settings: read-out: % Enzyme Activity (relative to DMSO control), 10 uM
From the text: as §1

DAPK1 = DAPK1 (Homo sapiens, UniProt P53355); test: HotSpot kinase assay; settings: read-out: % Enzyme Activity (relative to DMSO control), 10 uM
From the text: as §1

STK33 = STK33 (Homo sapiens, UniProt Q9BYT3); test: HotSpot kinase assay; settings: read-out: % Enzyme Activity (relative to DMSO control), 10 uM
PDK3/PDHK3 = PDK3/PDHK3 (Homo sapiens, UniProt Q15120); test: HotSpot kinase assay; settings: read-out: % Enzyme Activity (relative to DMSO control), 10 uM
From the text: as §1

DDR2 = DDR2 (Homo sapiens, UniProt Q16832); test: HotSpot kinase assay; settings: read-out: % Enzyme Activity (relative to DMSO control), 10 uM
SNRK = SNRK (Homo sapiens, UniProt Q9NRH2); test: HotSpot kinase assay; settings: read-out: % Enzyme Activity (relative to DMSO control), 10 uM
From the text: as §1

CDK17/cyclin Y (PCTK2) = CDK17/cyclin Y (PCTK2) (Homo sapiens, UniProt Q00537); test: HotSpot kinase assay; settings: read-out: % Enzyme Activity (relative to DMSO control), 10 uM
From the text: as §1

SBK1 = SBK1 (Homo sapiens, UniProt Q52WX2); test: HotSpot kinase assay; settings: read-out: % Enzyme Activity (relative to DMSO control), 10 uM
From the text: as §1

SLK/STK2 = SLK/STK2 (Homo sapiens, UniProt Q9H2G2); test: HotSpot kinase assay; settings: read-out: % Enzyme Activity (relative to DMSO control), 10 uM
From the text: as §1

NEK4 = NEK4 (Homo sapiens, UniProt P51957); test: HotSpot kinase assay; settings: read-out: % Enzyme Activity (relative to DMSO control), 10 uM
PIM2 = PIM2 (Homo sapiens, UniProt Q9P1W9); test: HotSpot kinase assay; settings: read-out: % Enzyme Activity (relative to DMSO control), 10 uM
From the text: as §1

[1] = test system: HEK-293 cells stably overexpressing ALPK1; test: CXCL10, TNF, CXCL8 mRNA (qPCR); settings: 30 h
SIK1 = SIK1 (Homo sapiens, UniProt P57059); test: HotSpot kinase assay; settings: read-out: % Enzyme Activity (relative to DMSO control), 10 uM
THP-1 macrophages = test: cells; settings: Homo sapiens, THP-1, 4 h
BRSK2 = BRSK2 (Homo sapiens, UniProt Q8IWQ3); test: HotSpot kinase assay; settings: read-out: % Enzyme Activity (relative to DMSO control), 10 uM
From the text: as §1

DMPK = DMPK (Homo sapiens, UniProt Q09013); test: HotSpot kinase assay; settings: read-out: % Enzyme Activity (relative to DMSO control), 10 uM
From the text: as §1

LATS2 = LATS2 (Homo sapiens, UniProt Q9NRM7); test: HotSpot kinase assay; settings: read-out: % Enzyme Activity (relative to DMSO control), 10 uM
From the text: as §1

BLK = BLK (Homo sapiens, UniProt P51451); test: HotSpot kinase assay; settings: read-out: % Enzyme Activity (relative to DMSO control), 10 uM
VRK1 = VRK1 (Homo sapiens, UniProt Q99986); test: HotSpot kinase assay; settings: read-out: % Enzyme Activity (relative to DMSO control), 10 uM
From the text: as §1

DDR1 = DDR1 (Homo sapiens, UniProt Q08345); test: HotSpot kinase assay; settings: read-out: % Enzyme Activity (relative to DMSO control), 10 uM
From the text: as §1

LCK2/ICK = LCK2/ICK (Homo sapiens, UniProt Q9UPZ9); test: HotSpot kinase assay; settings: read-out: % Enzyme Activity (relative to DMSO control), 10 uM
From the text: as §1

LYN = LYN (Homo sapiens, UniProt P07948); test: HotSpot kinase assay; settings: read-out: % Enzyme Activity (relative to DMSO control), 10 uM
From the text: as §1

RSK4 = RSK4 (Homo sapiens, UniProt Q9UK32); test: HotSpot kinase assay; settings: read-out: % Enzyme Activity (relative to DMSO control), 10 uM
From the text: as §1

CK1d = CK1d (Homo sapiens, UniProt P48730); test: HotSpot kinase assay; settings: read-out: % Enzyme Activity (relative to DMSO control), 10 uM
[2] = Pharmacokinetic analyses, oral once daily for 10 days; settings: for CAVG: 10th daily dose; for concentration at 0 h / concentration at 0.5 h / concentration at 1 h / concentration at 2 h / concentration at 4 h / concentration at 6 h / concentration at 8 h / concentration at 12 h / concentration at 24 h / AUC / CL/F / Cmax / Tmax / Vd/F / half-life: male, C57BL/6J, mouse, plasma; for concentration at 0 h / concentration at 0.5 h / concentration at 1 h / concentration at 2 h / concentration at 4 h / concentration at 6 h / concentration at 8 h / concentration at 12 h / concentration at 24 h: oral, DF-003 Conc. in plasma; for concentration at 0 h: 0 hours after 10th dosing; for concentration at 0.5 h: 0.5 hours after 10th dosing; for concentration at 1 h: 1 hour after 10th dosing; for concentration at 2 h: 2 hours after 10th dosing; for concentration at 4 h: 4 hours after 10th dosing; for concentration at 6 h: 6 hours after 10th dosing; for concentration at 8 h: 8 hours after 10th dosing; for concentration at 12 h: 12 hours after 10th dosing; for concentration at 24 h: 24 hours after 10th dosing; for AUC / CL/F / Cmax / Tmax / Vd/F / half-life: po
Method: Mice were housed in a specific pathogen-free (SPF) animal facility at Drug Farm (Shanghai, China) in individually ventilated cages on a 12 h light/dark cycle with a bedding of wood shavings and ad libitum access to rodent chow. […] Six 8 week-old male C57BL/6J mice from Zhejiang Vital River Laboratory Animal Technology Co., Ltd. (Zhejiang, China) were randomly assigned to 2 groups (3 animals/group). […] The oral dosing volume for all animals was 10 mL/kg body weight. Drinking water and certified rodent diet were available to animals ad libitum, except that animals were fasted 16 h prior to the last administration until 4 h after the last dosing. Blood samples at 0 (right before the last dosing), 0.5, 1, 2, 4, 6, 8, 12, and 24 h after the 10th dosing were collected from the tail vein and transferred into tubes containing K2-EDTA. The tubes were gently inverted several times to ensure mixing and immediately placed on wet ice. Plasma was obtained by centrifugation at 3200 × g at 4 °C for 10 min and stored at ≤ -60 °C until subsequent analysis. Twenty-four hours after the 10th dosing, the animals were euthanized by CO2 inhalation.

[3] = 3 mg/kg, 3 mg/kg, individual animals
[4] = 5 mg/kg, 5 mg/kg, individual animals

NEK6, sequence (Q9HC98 whole entry): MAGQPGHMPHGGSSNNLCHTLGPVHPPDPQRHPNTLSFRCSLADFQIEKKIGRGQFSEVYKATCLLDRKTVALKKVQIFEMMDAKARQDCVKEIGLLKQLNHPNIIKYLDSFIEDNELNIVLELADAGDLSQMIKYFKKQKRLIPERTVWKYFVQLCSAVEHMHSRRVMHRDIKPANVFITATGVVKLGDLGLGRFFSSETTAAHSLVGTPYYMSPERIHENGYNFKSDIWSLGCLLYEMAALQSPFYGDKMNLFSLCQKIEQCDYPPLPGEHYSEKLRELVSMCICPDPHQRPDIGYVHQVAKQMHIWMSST
DMPK, sequence (Q09013 whole entry): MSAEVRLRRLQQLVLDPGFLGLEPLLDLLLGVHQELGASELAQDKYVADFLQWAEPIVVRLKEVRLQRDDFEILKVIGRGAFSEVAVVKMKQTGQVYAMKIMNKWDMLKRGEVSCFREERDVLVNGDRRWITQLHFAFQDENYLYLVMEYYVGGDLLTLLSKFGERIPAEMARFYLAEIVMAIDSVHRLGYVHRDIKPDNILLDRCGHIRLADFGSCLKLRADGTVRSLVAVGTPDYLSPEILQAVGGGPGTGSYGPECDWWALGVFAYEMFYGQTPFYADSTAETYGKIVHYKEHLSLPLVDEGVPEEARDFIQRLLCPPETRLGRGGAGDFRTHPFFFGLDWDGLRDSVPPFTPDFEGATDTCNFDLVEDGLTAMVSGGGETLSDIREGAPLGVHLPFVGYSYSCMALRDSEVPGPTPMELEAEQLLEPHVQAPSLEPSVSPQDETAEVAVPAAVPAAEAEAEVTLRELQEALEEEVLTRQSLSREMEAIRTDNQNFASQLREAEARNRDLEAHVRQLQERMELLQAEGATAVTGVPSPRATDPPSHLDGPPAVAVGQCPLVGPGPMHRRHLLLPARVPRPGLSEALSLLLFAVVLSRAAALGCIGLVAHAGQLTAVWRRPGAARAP
MSSK1/STK23, sequence (Q9UPE1 whole entry): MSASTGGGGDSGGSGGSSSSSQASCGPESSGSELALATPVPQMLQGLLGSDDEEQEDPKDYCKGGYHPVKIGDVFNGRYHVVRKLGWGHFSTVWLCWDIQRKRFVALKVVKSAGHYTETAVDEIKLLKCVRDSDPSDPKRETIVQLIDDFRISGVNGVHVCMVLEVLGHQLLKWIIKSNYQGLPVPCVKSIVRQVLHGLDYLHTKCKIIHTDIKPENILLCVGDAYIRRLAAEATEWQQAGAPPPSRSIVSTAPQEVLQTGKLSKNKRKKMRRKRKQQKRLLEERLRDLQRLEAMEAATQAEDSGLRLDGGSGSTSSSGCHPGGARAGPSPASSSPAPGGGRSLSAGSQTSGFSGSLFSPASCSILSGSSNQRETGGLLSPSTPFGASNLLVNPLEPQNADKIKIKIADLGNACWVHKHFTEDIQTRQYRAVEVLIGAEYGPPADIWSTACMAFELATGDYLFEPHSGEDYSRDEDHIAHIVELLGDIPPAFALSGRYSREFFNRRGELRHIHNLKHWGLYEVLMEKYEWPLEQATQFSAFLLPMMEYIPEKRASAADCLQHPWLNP
PKCepsilon, sequence (Q02156 whole entry): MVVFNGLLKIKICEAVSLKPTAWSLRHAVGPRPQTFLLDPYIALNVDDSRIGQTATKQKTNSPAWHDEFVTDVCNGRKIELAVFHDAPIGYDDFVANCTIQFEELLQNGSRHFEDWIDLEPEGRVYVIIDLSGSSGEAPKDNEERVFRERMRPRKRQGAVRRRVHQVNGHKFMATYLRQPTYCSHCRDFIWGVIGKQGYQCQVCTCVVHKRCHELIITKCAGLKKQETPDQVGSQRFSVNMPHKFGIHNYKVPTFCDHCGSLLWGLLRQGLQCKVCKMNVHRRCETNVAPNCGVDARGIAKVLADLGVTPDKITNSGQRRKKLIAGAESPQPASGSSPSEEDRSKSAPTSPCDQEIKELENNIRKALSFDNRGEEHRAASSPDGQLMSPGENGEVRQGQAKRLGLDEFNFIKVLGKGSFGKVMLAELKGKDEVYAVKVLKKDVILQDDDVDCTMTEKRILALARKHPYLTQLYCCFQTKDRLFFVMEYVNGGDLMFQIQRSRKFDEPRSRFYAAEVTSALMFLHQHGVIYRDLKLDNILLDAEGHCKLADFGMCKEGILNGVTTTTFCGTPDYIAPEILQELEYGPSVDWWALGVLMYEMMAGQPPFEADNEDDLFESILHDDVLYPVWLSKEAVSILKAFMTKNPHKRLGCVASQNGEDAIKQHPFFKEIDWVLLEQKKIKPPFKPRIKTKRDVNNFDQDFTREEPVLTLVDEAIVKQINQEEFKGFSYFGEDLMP
LATS2, sequence (Q9NRM7 whole entry): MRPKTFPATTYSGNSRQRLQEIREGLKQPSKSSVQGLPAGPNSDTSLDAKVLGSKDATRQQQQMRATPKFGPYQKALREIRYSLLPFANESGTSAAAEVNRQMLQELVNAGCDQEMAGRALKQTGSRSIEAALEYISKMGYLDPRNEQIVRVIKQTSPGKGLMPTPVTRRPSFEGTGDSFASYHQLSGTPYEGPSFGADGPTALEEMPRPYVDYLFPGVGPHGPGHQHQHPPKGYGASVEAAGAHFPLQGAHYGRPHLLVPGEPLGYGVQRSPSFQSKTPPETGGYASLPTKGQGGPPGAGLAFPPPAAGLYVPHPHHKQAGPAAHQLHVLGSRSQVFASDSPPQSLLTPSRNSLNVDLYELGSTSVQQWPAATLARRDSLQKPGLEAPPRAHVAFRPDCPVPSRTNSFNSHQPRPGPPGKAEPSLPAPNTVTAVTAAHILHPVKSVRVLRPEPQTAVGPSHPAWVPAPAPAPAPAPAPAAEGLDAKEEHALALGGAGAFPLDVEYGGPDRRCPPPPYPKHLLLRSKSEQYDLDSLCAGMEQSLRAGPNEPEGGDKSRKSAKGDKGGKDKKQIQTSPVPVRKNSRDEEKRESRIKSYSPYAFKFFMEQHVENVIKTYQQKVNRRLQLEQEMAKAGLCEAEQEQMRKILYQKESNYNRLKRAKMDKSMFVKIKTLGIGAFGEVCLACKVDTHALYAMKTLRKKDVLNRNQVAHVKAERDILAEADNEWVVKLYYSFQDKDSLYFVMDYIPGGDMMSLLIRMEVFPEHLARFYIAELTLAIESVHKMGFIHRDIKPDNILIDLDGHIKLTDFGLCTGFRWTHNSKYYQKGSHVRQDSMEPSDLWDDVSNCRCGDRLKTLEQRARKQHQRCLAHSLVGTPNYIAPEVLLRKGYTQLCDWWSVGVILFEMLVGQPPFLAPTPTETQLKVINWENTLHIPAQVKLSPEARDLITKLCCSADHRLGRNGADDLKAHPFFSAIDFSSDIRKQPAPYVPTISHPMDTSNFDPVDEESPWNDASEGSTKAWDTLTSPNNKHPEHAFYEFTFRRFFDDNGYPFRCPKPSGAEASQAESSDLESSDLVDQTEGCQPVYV
ACK1, sequence (Q07912 whole entry): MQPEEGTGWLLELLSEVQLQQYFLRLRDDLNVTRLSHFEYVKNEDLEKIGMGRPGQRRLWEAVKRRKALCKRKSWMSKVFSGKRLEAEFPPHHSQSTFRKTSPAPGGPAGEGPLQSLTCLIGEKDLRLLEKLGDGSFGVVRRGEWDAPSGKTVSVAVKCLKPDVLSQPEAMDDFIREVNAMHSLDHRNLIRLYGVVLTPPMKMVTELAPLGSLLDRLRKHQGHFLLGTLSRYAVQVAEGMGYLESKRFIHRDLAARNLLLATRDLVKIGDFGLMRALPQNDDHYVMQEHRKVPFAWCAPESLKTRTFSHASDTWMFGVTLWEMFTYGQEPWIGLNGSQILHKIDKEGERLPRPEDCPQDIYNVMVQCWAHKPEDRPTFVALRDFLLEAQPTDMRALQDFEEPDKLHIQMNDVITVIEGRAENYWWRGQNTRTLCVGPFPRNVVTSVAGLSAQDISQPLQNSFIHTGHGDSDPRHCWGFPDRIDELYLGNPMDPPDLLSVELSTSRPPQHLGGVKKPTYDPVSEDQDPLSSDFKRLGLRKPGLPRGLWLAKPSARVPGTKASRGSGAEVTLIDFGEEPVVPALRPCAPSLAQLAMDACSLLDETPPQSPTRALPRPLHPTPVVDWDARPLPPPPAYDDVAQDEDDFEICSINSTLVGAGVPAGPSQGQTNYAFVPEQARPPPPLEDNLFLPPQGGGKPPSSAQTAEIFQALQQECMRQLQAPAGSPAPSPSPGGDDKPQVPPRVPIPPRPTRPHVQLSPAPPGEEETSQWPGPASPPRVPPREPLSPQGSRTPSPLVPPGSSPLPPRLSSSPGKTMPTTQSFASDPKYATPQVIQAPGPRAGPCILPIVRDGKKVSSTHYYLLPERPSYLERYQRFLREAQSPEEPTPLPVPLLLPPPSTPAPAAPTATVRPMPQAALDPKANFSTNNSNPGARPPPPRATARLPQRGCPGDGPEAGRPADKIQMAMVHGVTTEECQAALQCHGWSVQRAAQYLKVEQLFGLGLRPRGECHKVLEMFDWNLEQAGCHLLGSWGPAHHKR
CK1d, sequence (P48730 whole entry): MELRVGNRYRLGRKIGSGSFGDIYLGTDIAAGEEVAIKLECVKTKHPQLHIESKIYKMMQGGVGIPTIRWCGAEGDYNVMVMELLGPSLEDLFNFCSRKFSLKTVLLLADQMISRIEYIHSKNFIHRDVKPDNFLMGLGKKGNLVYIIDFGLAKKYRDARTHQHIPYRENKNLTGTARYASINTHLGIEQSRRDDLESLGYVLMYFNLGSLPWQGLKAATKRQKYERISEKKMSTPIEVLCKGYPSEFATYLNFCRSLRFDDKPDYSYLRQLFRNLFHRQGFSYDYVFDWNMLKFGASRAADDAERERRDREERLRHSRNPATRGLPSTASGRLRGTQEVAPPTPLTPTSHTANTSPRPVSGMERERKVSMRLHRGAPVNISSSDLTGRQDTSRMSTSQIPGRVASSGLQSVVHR

Work on C#C[C@@](C)(c1ccc(Cl)cc1)c1csc(NC(=O)c2c(F)cc(N3CCNCC3)cc2F)n1 (stereo in doubt) [DF-003] yielded a remaining activity at 10 µM (ACK1) of 114%, a remaining activity at 10 µM (MSSK1/STK23) of 84.2% and a remaining activity at 10 µM (RSK1) of 69.2%. For the same molecule, the remaining activity at 10 µM (PKCepsilon) was 81.6%, the remaining activity at 10 µM (ALK1/ACVRL1) was 89.1% and the remaining activity at 10 µM (NEK6) was 88.5%. The remaining activity at 10 µM (STK22D/TSSK1) was 94.2%, the remaining activity at 10 µM (DAPK1) was 62.8% and the remaining activity at 10 µM (STK33) was 93.9%. The remaining activity at 10 µM (PDK3/PDHK3) was 89.9%, the remaining activity at 10 µM (DDR2) was 84.6% and the remaining activity at 10 µM (SNRK) was 80.5%. The remaining activity at 10 µM (CDK17/cyclin Y (PCTK2)) was 82.4%, the remaining activity at 10 µM (SBK1) was 94.3% and the remaining activity at 10 µM (SLK/STK2) was 89%. For the same molecule, the remaining activity at 10 µM (NEK4) was 75.9%, the remaining activity at 10 µM (PIM2) was 87.6% and the “impact on basal expression of TNF, CXCL10, CXCL8” value [1] was “no impact”. For the same molecule, the remaining activity at 10 µM (SIK1) was 99.8%, the IC50 (THP-1 macrophages; read-out: IC50, DF-006-induced CXCL8 upregulation) was 6.5 nM and the IC50 (THP-1 macrophages; read-out: IC50, DF-006-induced TNF upregulation) was 8 nM. For the same molecule, the remaining activity at 10 µM (BRSK2) was 96%, the remaining activity at 10 µM (DMPK) was 94.6% and the remaining activity at 10 µM (LATS2) was 45.3%. The remaining activity at 10 µM (BLK) was 74.5%, the remaining activity at 10 µM (VRK1) was 117% and the remaining activity at 10 µM (DDR1) was 85.1%. It also gave a remaining activity at 10 µM (LCK2/ICK) of 86.9%, a remaining activity at 10 µM (LYN) of 137% and a remaining activity at 10 µM (RSK4) of 88.3%. It also gave a remaining activity at 10 µM (CK1d) of 81.5%, a CAVG ([2]; 3 mg/kg oral) of 75.6 ± 5.53 ng/mL and a CAVG ([2]; 5 mg/kg oral) of 164 ± 29.0 ng/mL. For the same molecule, the “average time to Cmax (Tmax)” value ([2]; 3 and 5 mg/kg oral, 10th dose) was 2 to 2.67 h, the “DF-003 Conc. in tissues 24 hr after 10th dosing” value (shortened to “DF-003 Conc. in tissues 24 hr”) ([2]; Cerebral Cortex, 3 mg/kg, individual animals) was 1358 and 1241 and 1263 and the “DF-003 Conc. in tissues 24 hr” value ([2]; Cerebral Cortex, 5 mg/kg, individual animals) was 2520 and 2846 and 2696. The “DF-003 Conc. in tissues 24 hr” value ([2]; Optic Nerve, 3 mg/kg, 6 optic nerves from 3 mice of same dosing group combined into one sample) was 1104, the “DF-003 Conc. in tissues 24 hr” value ([2]; Optic Nerve, 5 mg/kg, 6 optic nerves from 3 mice of same dosing group combined into one sample) was 1615 and the “DF-003 Conc. in tissues 24 hr” value ([2]; Retina, 3 mg/kg, individual animals) was 620 and 646 and 1356. For the same molecule, the “DF-003 Conc. in tissues 24 hr” value ([2]; Retina, 5 mg/kg, individual animals) was 1351 and 1933 and 1171, the concentration at 0 h [2, 3] was 46.4 ng/mL and the concentration at 0.5 h [2, 3] was 78.6 ng/mL. The concentration at 1 h [2, 3] was 110 ng/mL, the concentration at 2 h [2, 3] was 123 ng/mL and the concentration at 4 h [2, 3] was 115 ng/mL. It also gave a concentration at 6 h [2, 3] of 92 ng/mL, a concentration at 8 h [2, 3] of 99.9 ng/mL and a concentration at 12 h [2, 3] of 73.9 ng/mL. The concentration at 24 h [2, 3] was 19.5 ng/mL, the concentration at 0 h [2, 4] was 142 ng/mL and the concentration at 0.5 h [2, 4] was 168 ng/mL. It also gave a concentration at 1 h [2, 4] of 228 ng/mL, a concentration at 2 h [2, 4] of 218 ng/mL and a concentration at 4 h [2, 4] of 238 ng/mL. The concentration at 6 h [2, 4] was 174 ng/mL, the concentration at 8 h [2, 4] was 162 ng/mL and the concentration at 12 h [2, 4] was 122 ng/mL. The concentration at 24 h [2, 4] was 45.6 ng/mL, the AUC ([2]; 3 mg/kg) was 1820 ± 132 ng·h/mL and the CL/F ([2]; 3 mg/kg) was 27.6 ± 1.94 mL/min/kg. The Cmax ([2]; 3 mg/kg) was 160 ng/mL, the Tmax ([2]; 3 mg/kg) was 2 h and the Vd/F ([2]; 3 mg/kg) was 18.3 ± 1.55 L/kg. For the same molecule, the half-life ([2]; 3 mg/kg) was 461 min, the AUC ([2]; 5 mg/kg) was 3940 ± 697 ng·h/mL and the CL/F ([2]; 5 mg/kg) was 21.6 ± 4.11 mL/min/kg. It also gave a Cmax ([2]; 5 mg/kg) of 310 ng/mL, a Tmax ([2]; 5 mg/kg) of 2.67 ± 1.15 h and a Vd/F ([2]; 5 mg/kg) of 16.5 ± 3.68 L/kg. For the same molecule, the half-life ([2]; 5 mg/kg) was 529 min.
